Columns and labels:
Assay type in all cases: cell-based
[1] = system: panel of 19 human breast cancer cell lines; test: Cell growth inhibition assay, panel of 19 human breast cancer cell lines; conditions: for fold-difference between IC50's in the most sensitive and the least sensitive cell line: panel of 19 human breast cancer cell lines
Text: (§1) The following human breast cancer cell lines were obtained from the ATCC. Cells were maintained according to ATCC-recommended culture conditions. AU565 (ATCC Catalog No. ATCC Catalog. No. CRL-2351), BT-20 (ATCC Catalog No. HTB-19), MCF7 (ATCC Catalog No. HTB22), MDA-MB-231 (ATCC Catalog No. HTB-26), MDA-MB-435 (ATCC Catalog No. HTB-129), MDA-MB-468 (ATCC Catalog No. HTB-132), HCC38 (ATCC Catalog No. CRL-2314), HCC70 (ATCC Catalog No. CRL-2315), HCC1143 (ATCC Catalog No. CRL-2321), HCC1428 (ATCC Catalog No. CRL-2327), HCC1500 (ATCC Catalog No. CRL-2329), HCC1806 (ATCC Catalog No. CRL-2335), HCC1954 (ATCC Catalog No. CRL-2338), HCC2218 (ATCC Catalog No. CRL-2343), UACC-812 (ATCC Catalog No. CRL-1897), UACC-893 (ATCC Catalog No. CRL-1902), ZR-75-1 (ATCC Catalog No. CRL-1500), ZR-75-30 (ATCC Catalog No. CRL-1504).
(§2) Cultured human breast cancer cells were placed in 96-well plates and grown in the continuous presence of test compounds for 4 or 7 days. To expose the cells to test compounds for 7 days, medium was replaced with fresh medium containing compounds after 4 days of exposure and cells were incubated for 3 additional days. Cell growth was assessed using modifications (Amin et al., Cancer Res., 47:6040-6045, 1987; incorporated herein by reference) of a methylene blue-based microculture assay (Finlay et al., Anal. Biochem., 139:272-277, 1984; incorporated herein by reference).
Antiproliferative effects of four tubulin-binding anticancer agents were evaluated by a methylene blue-based cell growth inhibin assay in a panel of 19 human breast cancer cell lines. The following agents were used in this study: halichondrin analog E7389, hemiasterlin analog E7974, vinblastine, and paclitaxel. Each IC50 determination was conducted in at least three separate experiments. A presence of multidrug resistance efflux pump (P-glycoprotein or PgP) could markedly affect sensitivity of cell lines to test agents and thus mask correlations between beta-tubulin expression and cell lines' sensitivity to test agents. Cell lines were therefore tested for evidence of PgP expression by monitoring effects of the PgP blocker verapamil (used at a 10 μM concentration) on paclitaxel sensitivity. No evidence for PgP expression was found in any of the cell lines tested (Table 4). […] Inter-drug correlations were seen between sensitivities to the three microtubule polymerization inhibitors E7974, E7389, and vinblastine, but not between the microtubule polymerization stabilizer paclitaxel.

[2] = system: HCC1806 human breast cancer cell line; test: Cell growth inhibition assay (methylene blue), HCC1806; conditions: continuous presence of compound 4 or 7 days, at least three experiments, read-out: Average IC50
Text: as §1, §2
(§3) To investigate the possible expression of PgP by the cell lines used in this study, the antiproliferative effects of paclitaxel were determined in the presence and absence of verapamil, a known inhibitor of PgP.

[3] = system: MCF-7 human breast cancer cell line; test: Cell growth inhibition assay (methylene blue), MCF-7; conditions: MCF7, continuous presence of compound 4 or 7 days, at least three experiments, read-out: Average IC50
Text: as §1, §2, §3

[4] = system: HCC1419 human breast cancer cell line; test: Cell growth inhibition assay (methylene blue), HCC1419; conditions: continuous presence of compound 4 or 7 days, at least three experiments, read-out: Average IC50
Method: as §2, §3

[5] = system: ZR-75-1 human breast cancer cell line; test: Cell growth inhibition assay (methylene blue), ZR-75-1; conditions: continuous presence of compound 4 or 7 days, at least three experiments, read-out: Average IC50
Text: as §1, §2, §3

[6] = system: AU565 human breast cancer cell line; test: Cell growth inhibition assay (methylene blue), AU565; conditions: continuous presence of compound 4 or 7 days, at least three experiments, read-out: Average IC50
Text: as §1, §2, §3

[7] = system: UACC-893 human breast cancer cell line; test: Cell growth inhibition assay (methylene blue), UACC-893; conditions: continuous presence of compound 4 or 7 days, at least three experiments, read-out: Average IC50
Text: as §1, §2, §3

[8] = system: MDA-MB-231 human breast cancer cell line; test: Cell growth inhibition assay (methylene blue), MDA-MB-231; conditions: continuous presence of compound 4 or 7 days, at least three experiments, read-out: Average IC50
Text: as §1, §2, §3

[9] = system: MDA-MB-435 human breast cancer cell line; test: Cell growth inhibition assay (methylene blue), MDA-MB-435; conditions: continuous presence of compound 4 or 7 days, at least three experiments, read-out: Average IC50
Text: as §1, §2, §3

[10] = system: UACC-812 human breast cancer cell line; test: Cell growth inhibition assay (methylene blue), UACC-812; conditions: continuous presence of compound 4 or 7 days, at least three experiments, read-out: Average IC50
Text: as §1, §2, §3

[11] = system: ZR-75-30 human breast cancer cell line; test: Cell growth inhibition assay (methylene blue), ZR-75-30; conditions: continuous presence of compound 4 or 7 days, at least three experiments, read-out: Average IC50
Text: as §1, §2, §3

[12] = system: HCC1500 human breast cancer cell line; test: Cell growth inhibition assay (methylene blue), HCC1500; conditions: continuous presence of compound 4 or 7 days, at least three experiments, read-out: Average IC50
Text: as §1, §2, §3

[13] = system: MDA-MB-468 human breast cancer cell line; test: Cell growth inhibition assay (methylene blue), MDA-MB-468; conditions: continuous presence of compound 4 or 7 days, at least three experiments, read-out: Average IC50
Text: as §1, §2, §3

[14] = system: HCC1954 human breast cancer cell line; test: Cell growth inhibition assay (methylene blue), HCC1954; conditions: continuous presence of compound 4 or 7 days, at least three experiments, read-out: Average IC50
Text: as §1, §2, §3

[15] = system: HCC70 human breast cancer cell line; test: Cell growth inhibition assay (methylene blue), HCC70; conditions: continuous presence of compound 4 or 7 days, at least three experiments, read-out: Average IC50
Text: as §1, §2, §3

[16] = system: HCC1143 human breast cancer cell line; test: Cell growth inhibition assay (methylene blue), HCC1143; conditions: continuous presence of compound 4 or 7 days, at least three experiments, read-out: Average IC50
Text: as §1, §2, §3

[17] = system: HCC2218 human breast cancer cell line; test: Cell growth inhibition assay (methylene blue), HCC2218; conditions: HC-2218, continuous presence of compound 4 or 7 days, at least three experiments, read-out: Average IC50
Text: as §1, §2, §3

[18] = system: HCC1428 human breast cancer cell line; test: Cell growth inhibition assay (methylene blue), HCC1428; conditions: continuous presence of compound 4 or 7 days, at least three experiments, read-out: Average IC50
Text: as §1, §2, §3

[19] = system: BT-20 human breast cancer cell line; test: Cell growth inhibition assay (methylene blue), BT-20; conditions: continuous presence of compound 4 or 7 days, at least three experiments, read-out: Average IC50
Text: as §1, §2, §3

[20] = system: HCC38 human breast cancer cell line; test: Cell growth inhibition assay (methylene blue), HCC38; conditions: continuous presence of compound 4 or 7 days, at least three experiments, read-out: Average IC50
Text: as §1, §2, §3

Compound: C=C1C[C@@H]2CC[C@@]34C[C@H]5O[C@H]6[C@@H](O3)[C@H]3O[C@H](CC[C@@H]3O[C@H]6[C@H]5O4)CC(=O)C[C@@H]3[C@@H](OC)[C@@H](C[C@H](O)CN)O[C@H]3C[C@H]3O[C@@H](CC[C@@H]1O2)C[C@@H](C)C3=C [E7389]
- fold-difference between IC50's in the most sensitive and the least sensitive cell line [1]: 6.2 fold
- IC50 ([1]; range over 19 human breast cancer cell lines): 0.29 to 1.8 nM
- IC50 [2]: 0.74 nM
- IC50 [3]: 1.45 nM
- IC50 [4]: 1.59 nM
- IC50 [5]: 1.19 nM
- IC50 [6]: 0.65 nM
- IC50 [7]: 0.31 nM
- IC50 [8]: 1.75 nM
- IC50 [9]: 0.29 nM
- IC50 [10]: 1.17 nM
- IC50 [11]: 1.8 nM
- IC50 [12]: 0.56 nM
- IC50 [13]: 0.45 nM
- IC50 [14]: 0.37 nM
- IC50 [15]: 0.63 nM
- IC50 [16]: 0.43 nM
- IC50 [17]: 1.14 nM
- IC50 [18]: 0.53 nM
- IC50 [19]: 0.82 nM
- IC50 [20]: 0.4 nM

Compound: C/C(=C\[C@H](C(C)C)N(C)C(=O)[C@@H](NC(=O)[C@H]1CCCCN1C(C)C)C(C)(C)C)C(=O)O [E7974]
- fold-difference between IC50's in the most sensitive and the least sensitive cell line [1]: 6.8 fold

From US20060148014A1, “Tubulin isotype screening in cancer therapy using hemiasterlin analogs” (priority 2004, published 2006)
